According to article PMC8151276, “An Integrated Approach toward NanoBRET Tracers for Analysis of GPCR Ligand Engagement” (Molecules, 2021):

What was measured:
Format in all cases: binding
C3AR1 = target: T1, C3AR1 (Homo sapiens, UniProt Q16581); experiment: NanoBRET screen HiBiT-C3AR1 in HEK293
T1 construct: purchased Promega (in-house HiBiT-GPCR construct library, NanoBRET)
T1 sequence (Q16581 1-482): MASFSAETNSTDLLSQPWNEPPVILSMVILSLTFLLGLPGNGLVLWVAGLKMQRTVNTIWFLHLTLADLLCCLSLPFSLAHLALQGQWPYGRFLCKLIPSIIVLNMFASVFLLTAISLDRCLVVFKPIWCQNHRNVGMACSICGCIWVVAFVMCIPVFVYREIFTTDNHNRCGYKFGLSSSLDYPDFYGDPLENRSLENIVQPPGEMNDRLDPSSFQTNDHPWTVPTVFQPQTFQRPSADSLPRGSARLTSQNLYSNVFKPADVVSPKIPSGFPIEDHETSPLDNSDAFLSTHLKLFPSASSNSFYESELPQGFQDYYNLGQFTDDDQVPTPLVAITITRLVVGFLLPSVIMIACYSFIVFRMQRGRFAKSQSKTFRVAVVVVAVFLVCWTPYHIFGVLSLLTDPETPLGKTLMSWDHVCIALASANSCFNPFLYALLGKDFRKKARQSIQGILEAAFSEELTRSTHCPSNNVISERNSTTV
Method: (§1) Each tracer candidate was screened across the entire library of HiBiT-GPCR constructs using NanoBRET as the detection modality. As depicted in Figure 4A, the specificity of interactions was evaluated through decrease in BRET due to competitive displacement of a bound tracer by excess parental compound. Each tracer was analyzed for binding to each HiBiT-GPCR fusion in the absence and in the presence of competing parental compound. Briefly, HEK293 cells were transfected with HiBiT-GPCR constructs diluted into promoterless DNA to reduce expression and maximize translocation to the cell surface. Each tracer candidate was then screened at concentrations of 1 μM and 0.1 μM across cells expressing these fusions. Cells were treated for 1.5 h with tracer either alone or in the presence of 20 μM competing parental compound (i.e., control). BRET was measured upon addition of purified LgBiT and subsequent complementation with HiBiT genetically fused to a GPCR. The specificity of interactions was assessed through a decrease in BRET signal due to competitive displacement of the bound tracer. To further gauge the robustness of these interactions, the fold response over the control (i.e., BRETtracer/BRETcontrol) was calculated. We chose a 1.5-fold response, which translates to ≥7-fold signal over noise as the minimal threshold required to score an interaction as positive. […]. Below we highlight the screening results obtained for our exemplary fluorescent tracers based on Clozapine, Amitriptyline and AZD1283.
(§2) HiBiT-GPCR DNA constructs were diluted in 10 mM Tris pH 8 to a final concentration of 0.01 μg/μL, arrayed in 96-well plates and stored at −20 °C. For transfection, HEK293 cells were suspended in Opti-MEM (without phenol red) supplemented with 2% fetal bovine serum (Seradigm) and 100 units/mL penicillin–streptomycin (Gibco) at a final concentration of 220,000 cells/mL and dispensed into white 96-well plates at 90 μL/well. Subsequent transfections and screens were carried using an Agilent Bravo Automated Liquid Handling Platform. First, the 96-well HiBiT DNA arrays were diluted 25-fold in Opti-MEM (without serum or phenol red) to a final concentration of 0.0004 μg/μL and 20 μL of the diluted DNAs were transferred into new 96-well plates. Next, promoterless carrier DNA (1 μg/μL) was diluted 25-fold (0.04 μg/μL) and then dispensed into the diluted arrays at 20 μL/well. Following brief mixing, Viafect transfection reagent (Promega) diluted 16-fold into Opti-MEM was dispensed into the plates at 40 μL/well. After mixing by pipetting, plates were incubated for 10 min on the pipetting station deck. The DNA-transfection reagent complexes were then added to plates containing cells. To facilitate the screen, 10 μL of DNA-transfection reagent complexes were added in duplicates to the top 4 and bottom 4 rows, resulting in two identical 48-well arrays per plate. Plates with transfected cells were incubated for 18–20 h at 37 °C/5% CO2. A screen of each tracer across the entire library using two different concentrations requires duplicate plates of transfected cells. Depending on the number of tracers being screened, transfections can be scaled up using the same ratios. The next day, for each tracer, four 20× screening solutions in tracer dilution buffer (Promega) were prepared: two duplicates at final concentration of 20 μM and two duplicates at a final concentration of 2 μM. A competing unmodified compound was added to one of each duplicate at a final concentration of 400 μM. The four resulting solutions were diluted 4-fold in Opti-MEM without serum or phenol red to generate 5× solutions (5 µM and 0.5 µM tracer +/− 100 μM competing compound). To screen the library, a BioTek MultiFlo FX liquid dispenser was used to dispense 22.5 µL of tracer solution to the top 4 rows and 22.5 µL tracer + competing compound solution to the 4 bottom rows. Plates were briefly mixed on an orbital shaker and incubated for 1.5 h at room temperature. […]

HCRTR2 = target: T2, HCRTR2 (Homo sapiens, UniProt O43614); experiment: NanoBRET screen HiBiT-HCRTR2 in HEK293
T2 construct: purchased Promega (in-house HiBiT-GPCR construct library, NanoBRET)
T2 sequence (O43614 1-444): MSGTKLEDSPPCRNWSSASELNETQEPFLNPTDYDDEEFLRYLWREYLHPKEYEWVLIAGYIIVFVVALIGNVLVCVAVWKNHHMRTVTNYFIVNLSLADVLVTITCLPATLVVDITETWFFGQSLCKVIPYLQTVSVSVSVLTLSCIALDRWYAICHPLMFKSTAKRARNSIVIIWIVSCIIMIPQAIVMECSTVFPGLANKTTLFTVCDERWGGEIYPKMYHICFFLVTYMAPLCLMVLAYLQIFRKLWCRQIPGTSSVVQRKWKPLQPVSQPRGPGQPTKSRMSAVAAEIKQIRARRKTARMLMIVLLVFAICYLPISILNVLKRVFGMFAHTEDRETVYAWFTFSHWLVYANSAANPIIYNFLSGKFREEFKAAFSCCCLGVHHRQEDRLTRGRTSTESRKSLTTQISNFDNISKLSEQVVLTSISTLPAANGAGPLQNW
Method: as §1, §2

GRM3 = target: T3, GRM3 (Homo sapiens, UniProt Q14832); experiment: NanoBRET screen HiBiT-GRM3 in HEK293
T3 construct: purchased Promega (in-house HiBiT-GPCR construct library, NanoBRET)
Method: as §1, §2

T3 sequence (Q14832 23-879): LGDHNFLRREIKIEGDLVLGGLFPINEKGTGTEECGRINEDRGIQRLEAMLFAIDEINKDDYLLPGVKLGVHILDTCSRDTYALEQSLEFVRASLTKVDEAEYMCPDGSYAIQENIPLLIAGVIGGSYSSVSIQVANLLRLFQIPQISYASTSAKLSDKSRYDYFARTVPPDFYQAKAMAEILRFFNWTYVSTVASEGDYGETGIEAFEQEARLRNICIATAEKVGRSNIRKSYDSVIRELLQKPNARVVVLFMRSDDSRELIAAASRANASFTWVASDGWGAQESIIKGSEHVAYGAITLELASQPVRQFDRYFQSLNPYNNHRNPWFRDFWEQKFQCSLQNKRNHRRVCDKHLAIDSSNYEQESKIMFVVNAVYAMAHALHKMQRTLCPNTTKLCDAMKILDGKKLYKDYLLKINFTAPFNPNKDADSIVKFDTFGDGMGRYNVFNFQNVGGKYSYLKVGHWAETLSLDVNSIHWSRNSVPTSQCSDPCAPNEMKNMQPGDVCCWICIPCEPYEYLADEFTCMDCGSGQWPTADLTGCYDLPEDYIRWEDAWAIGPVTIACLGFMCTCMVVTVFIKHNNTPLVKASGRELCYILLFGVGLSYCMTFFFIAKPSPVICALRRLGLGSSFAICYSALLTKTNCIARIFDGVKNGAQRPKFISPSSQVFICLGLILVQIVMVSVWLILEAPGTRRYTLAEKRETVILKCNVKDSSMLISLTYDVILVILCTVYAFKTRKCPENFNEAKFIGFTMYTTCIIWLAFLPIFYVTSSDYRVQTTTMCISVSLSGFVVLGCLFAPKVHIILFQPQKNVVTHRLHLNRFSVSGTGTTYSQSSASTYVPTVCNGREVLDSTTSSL

## O=C(CCc1ccc2n1[B-](F)(F)[N+]1=C(c3ccc[nH]3)C=CC1=C2)NCc1ccc(C(=O)NCCOCCC(=O)N[C@@H]2CC[C@@]3(O)[C@H]4Cc5ccc(O)c6c5[C@@]3(CCN4CC3CC3)[C@H]2O6)cc1 [Naltrexone-3-NB590]
C3AR1; C3AR1, tracer 0.1μM
  NanoBRET Fold Response: 0.99
C3AR1; C3AR1, tracer 1μM
  NanoBRET Fold Response: 1.02
HCRTR2; HCRTR2, tracer 0.1μM
  NanoBRET Fold Response: 1.04
HCRTR2; HCRTR2, tracer 1μM
  NanoBRET Fold Response: 1.01
GRM3; GRM3, tracer 0.1μM
  NanoBRET Fold Response: 1.15
GRM3; GRM3, tracer 1μM
  NanoBRET Fold Response: 0.81

## CN1CCN(C2=Nc3cc(Cl)ccc3N(CC(=O)NCCOCCOCCOCCOCCNC(=O)CCc3ccc4n3[B-](F)(F)[N+]3=C(c5ccc[nH]5)C=CC3=C4)c3ccccc32)CC1 [Clozapine-c-2-NB590]
C3AR1; C3AR1, 0.1μM tracer
  NanoBRET Fold Response: 0.99
C3AR1; C3AR1, 1μM tracer
  NanoBRET Fold Response: 1.00
HCRTR2; HCRTR2, 0.1μM tracer
  NanoBRET Fold Response: 0.97
HCRTR2; HCRTR2, 1μM tracer
  NanoBRET Fold Response: 1.04
GRM3; GRM3, 0.1μM tracer
  NanoBRET Fold Response: 0.93
GRM3; GRM3, 1μM tracer
  NanoBRET Fold Response: 1.07

## O=C(CCOCCOCCOCCOCCNC(=O)CCc1ccc2n1[B-](F)(F)[N+]1=C(c3ccc[nH]3)C=CC1=C2)NCCCN1CCN(C2=Nc3cc(Cl)ccc3Nc3ccccc32)CC1 [Clozapine-a-2-NB590]
C3AR1; C3AR1, 0.1μM tracer
  NanoBRET Fold Response: 1.18
C3AR1; C3AR1, 1μM tracer
  NanoBRET Fold Response: 1.21
HCRTR2; HCRTR2, 0.1μM tracer
  NanoBRET Fold Response: 1.05
HCRTR2; HCRTR2, 1μM tracer
  NanoBRET Fold Response: 1.16
GRM3; GRM3, 0.1μM tracer
  NanoBRET Fold Response: 0.97
GRM3; GRM3, 1μM tracer
  NanoBRET Fold Response: 0.96

## CCOC(=O)c1cc(C#N)c(N2CCC(C(=O)NS(=O)(=O)Cc3ccccc3/C=C/C(=O)NCCNC(=O)CCc3ccc4n3[B-](F)(F)[N+]3=C(c5ccc[nH]5)C=CC3=C4)CC2)nc1C [AZD1283-1-NB590]
C3AR1; C3AR1, 0.1μM
  NanoBRET Fold Response: 1.10
C3AR1; C3AR1, 1μM
  NanoBRET Fold Response: 1.09
HCRTR2; HCRTR2, 0.1μM
  NanoBRET Fold Response: 1.01
HCRTR2; HCRTR2, 1μM
  NanoBRET Fold Response: 1.01
GRM3; GRM3, 0.1μM
  NanoBRET Fold Response: 0.97
GRM3; GRM3, 1μM
  NanoBRET Fold Response: 0.99

## COc1ccc2[nH]c(-c3ccc(CNC(=O)CCOCCOCCOCCOCCNC(=O)CCc4ccc5n4[B-](F)(F)[N+]4=C(c6ccc[nH]6)C=CC4=C5)cc3)c(CCNC(C)=O)c2n1 [AzomelatoninICO9-2-NB590]
C3AR1; 0.1μM tracer
  NanoBRET Fold Response: 0.78
C3AR1; 1μM tracer
  NanoBRET Fold Response: 0.87
HCRTR2; 0.1μM tracer
  NanoBRET Fold Response: 1.02
HCRTR2; 1μM tracer
  NanoBRET Fold Response: 1.08
GRM3; 0.1μM tracer
  NanoBRET Fold Response: 1.03
GRM3; 1μM tracer
  NanoBRET Fold Response: 0.85

## CCCn1c(=O)c2[nH]c(-c3ccc(OCC(=O)NCCNC(=O)CCOCCNC(=O)c4ccc(CNC(=O)CCc5ccc6n5[B-](F)(F)[N+]5=C(c7ccc[nH]7)C=CC5=C6)cc4)cc3)nc2n(CCC)c1=O [XAC-3-NB590]
C3AR1; C3AR1, tracer 0.1μM
  NanoBRET Fold Response: 1.15
C3AR1; C3AR1, tracer 1μM
  NanoBRET Fold Response: 0.96
HCRTR2; HCRTR2, tracer 0.1μM
  NanoBRET Fold Response: 1.06
HCRTR2; HCRTR2, tracer 1μM
  NanoBRET Fold Response: 0.97
GRM3; GRM3, tracer 0.1μM
  NanoBRET Fold Response: 1.02
GRM3; GRM3, tracer 1μM
  NanoBRET Fold Response: 1.10

## COc1ccccc1N1CCN(CCCCN2C(=O)c3ccc(CNC(=O)CCOCCNC(=O)c4ccc(CNC(=O)CCc5ccc6n5[B-](F)(F)[N+]5=C(c7ccc[nH]7)C=CC5=C6)cc4)cc3C2=O)CC1 [NAN-190-3-NB590]
C3AR1; C3AR1, tracer 0.1μM
  NanoBRET Fold Response: 0.90
C3AR1; C3AR1, tracer 1μM
  NanoBRET Fold Response: 0.93
HCRTR2; HCRTR2, tracer 0.1μM
  NanoBRET Fold Response: 0.98
HCRTR2; HCRTR2, tracer 1μM
  NanoBRET Fold Response: 0.97
GRM3; GRM3, tracer 0.1μM
  NanoBRET Fold Response: 0.98
GRM3; GRM3, tracer 1μM
  NanoBRET Fold Response: 1.25

## CN(CCC=C1c2ccccc2CCc2ccccc21)C(=O)CCOCCOCCOCCOCCNC(=O)CCc1ccc2n1[B-](F)(F)[N+]1=C(c3ccc[nH]3)C=CC1=C2 [Amitriptyline-e-2-NB590]
C3AR1; tracer at 1μM
  NanoBRET Fold Response: 1.02

## O=C(CCc1ccc2n1[B-](F)(F)[N+]1=C(c3ccc[nH]3)C=CC1=C2)NCc1ccc(C(=O)NCCOCCOCCNCC(O)COc2cccc3ccccc23)cc1 (centres unmarked) [Propranolol-3-NB590]
C3AR1; C3AR1, 0.1μM
  NanoBRET Fold Response: 1.05
C3AR1; C3AR1, 1μM
  NanoBRET Fold Response: 1.07
HCRTR2; HCRTR2, 0.1μM
  NanoBRET Fold Response: 1.09
HCRTR2; HCRTR2, 1μM
  NanoBRET Fold Response: 1.00
GRM3; GRM3, 0.1μM
  NanoBRET Fold Response: 1.02
GRM3; GRM3, 1μM
  NanoBRET Fold Response: 0.95

## COc1ccc2c(n1)c(CCNC(C)=O)cn2CCNC(=O)CCc1ccc2n1[B-](F)(F)[N+]1=C(c3ccc[nH]3)C=CC1=C2 [Azamelatonin-1-NB590]
C3AR1; 0.1μM tracer
  NanoBRET Fold Response: 0.88
C3AR1; 1μM tracer
  NanoBRET Fold Response: 0.98
HCRTR2; 0.1μM tracer
  NanoBRET Fold Response: 1.04
HCRTR2; 1μM tracer
  NanoBRET Fold Response: 1.30
GRM3; 0.1μM tracer
  NanoBRET Fold Response: 0.95
GRM3; 1μM tracer
  NanoBRET Fold Response: 1.02

## O=C(CCOCCOCCOCCOCCNC(=O)CCc1ccc2n1[B-](F)(F)[N+]1=C(c3ccc[nH]3)C=CC1=C2)NCCCN1CCN(C2=Nc3ccccc3Oc3ccc(Cl)cc32)CC1 [Loxapine-a-2-NB590]
C3AR1; C3AR1, tracer 0.1μM
  NanoBRET Fold Response: 0.97
C3AR1; C3AR1, tracer 1μM
  NanoBRET Fold Response: 1.08
HCRTR2; HCRTR2, tracer 0.1μM
  NanoBRET Fold Response: 1.13
HCRTR2; HCRTR2, tracer 1μM
  NanoBRET Fold Response: 1.16
GRM3; GRM3, tracer 0.1μM
  NanoBRET Fold Response: 0.99
GRM3; GRM3, tracer 1μM
  NanoBRET Fold Response: 1.03

## CN(C)CCC=C1c2ccccc2CCc2ccc(C(=O)NCCNC(=O)CCOCCOCCOCCOCCNC(=O)CCc3ccc4n3[B-](F)(F)[N+]3=C(c5ccc[nH]5)C=CC3=C4)cc21 [Amitriptyline-a-2-NB590]
C3AR1; tracer at 0.1μM
  NanoBRET Fold Response: 0.99
C3AR1; tracer at 1μM
  NanoBRET Fold Response: 1.01
HCRTR2; tracer at 0.1μM
  NanoBRET Fold Response: 1.05
HCRTR2; tracer at 1μM
  NanoBRET Fold Response: 1.08
